# From patent publication US7332501B2, “Indol-3-yl-carbonyl-spiro-piperidine derivatives as V1a receptor antagonists” (Hoffmann-La Roche Inc., priority 2005, dated 2008)
# Counter-ions that a name gives are not always drawn.
# Molecular target: T1, human V1a receptor (Homo sapiens, UniProt P37288)
# T1 construct: expressed in transfected cells; host or cells: HEK293 cells, transiently transfected; cell membranes
# Assay: human V1a receptor binding (3H-Vasopressin SPA, HEK293 membranes)
# Conditions: displacement of 4 nM 3H-Vasopressin, membranes of HEK293 cells transiently transfected with human V1a receptor; Ki from IC50 by Cheng-Prussoff
# Procedure, shortened: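 Ki derived by Cheng-Prusoff from IC50 curves normalised to specific binding. Serially diluted compounds (in 2% DMSO) competed with 3H-vasopressin (4 nM working solution) for 1 h at room temperature on SPA beads bearing membranes of transiently transfected HEK293 cells; unlabelled vasopressin defined non-specific counts.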
# T1 sequence (P37288 whole entry): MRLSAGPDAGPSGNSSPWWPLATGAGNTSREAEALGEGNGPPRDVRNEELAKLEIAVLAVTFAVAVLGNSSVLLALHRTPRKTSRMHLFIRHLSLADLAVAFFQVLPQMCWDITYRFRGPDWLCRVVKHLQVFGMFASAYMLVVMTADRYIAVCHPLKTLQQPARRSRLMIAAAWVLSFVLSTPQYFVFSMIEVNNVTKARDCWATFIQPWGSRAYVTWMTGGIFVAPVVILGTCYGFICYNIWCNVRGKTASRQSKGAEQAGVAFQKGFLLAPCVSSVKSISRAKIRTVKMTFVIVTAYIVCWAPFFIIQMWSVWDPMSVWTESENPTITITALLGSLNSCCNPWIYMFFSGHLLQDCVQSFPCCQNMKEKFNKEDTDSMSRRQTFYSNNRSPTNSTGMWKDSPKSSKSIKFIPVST
row,SMILES,Ki
1,"Cc1c(C(=O)N2C[C@H](C)C3(OC(=O)c4ccccc43)[C@@H](C)C2)c2ccccc2n1Cc1ccccc1 (racemic) [Example 15, (SS,RR)-1′-[(1-benzyl-2-methyl-1H-indol-3-yl)carbonyl]-3′,5′-dimethyl-3H-spiro[2-benzofuran-1,4′-piperidin]-3-one]",14.8 nM
2,"O=C(Cn1cc(C(=O)N2CCC3(CC2)OCc2ccccc23)c2ccc(Cl)cc21)N1CCCCC1 [Example 204, 1′-{[6-Chloro-1-(2-oxo-2-piperidin-1-ylethyl)-1H-indol-3-yl]carbonyl}-3H-spiro[2-benzofuran-1,4′-piperidine]]",1.1 nM
3,"O=C(Cn1cc(C(=O)N2CCC3(CC2)CNc2ccccc23)c2ccc(Cl)cc21)c1ccccn1 [Example 101, 2-[6-Chloro-3-(1,2-dihydro-1′H-spiro[indole-3,4′-piperidin]-1′-ylcarbonyl)-1H-indol-1-yl]-1-pyridin-2-ylethanone]",27.9 nM
4,"COCC1(Cn2cc(C(=O)N3CCC4(CC3)OCc3ccccc34)c3ccc(Cl)cc32)CC1 [Example 244, 1′-[(6-Chloro-1-{[1-(methoxymethyl)cyclopropyl]methyl}-1H-indol-3-yl)carbonyl]-3H-spiro[2-benzofuran-1,4′-piperidine]]",2.6 nM
5,"CN(C)CCNC(=O)c1[nH]c2cc(Cl)ccc2c1C(=O)N1CCC2(CC1)OC(=O)c1cc(F)ccc12 [Example 26, 6-chloro-N-[2-(dimethylamino)ethyl]-3-[(5-fluoro-3-oxo-1′H,3H-spiro[2-benzofuran-1,4′-piperidin]-1′-yl)carbonyl]-1H-indole-2-carboxamide]",39.4 nM
6,"Cc1oc(-c2ccccc2)nc1C(=O)Cn1cc(C(=O)N2CCC3(CC2)OC(=O)c2cc(F)ccc23)c2ccc(Cl)cc21 [Example 170, 1′-({6-Chloro-1-[2-(5-methyl-2-phenyl-1,3-oxazol-4-yl)-2-oxoethyl]-1H-indol-3-yl}carbonyl)-5-fluoro-3H-spiro[2-benzofuran-1,4′-piperidin]-3-one]",2.2 nM
7,"O=C1OC2(CCN(C(=O)c3cn(Cc4cc(F)cc(F)c4)c4ccccc34)CC2)c2ccccc21 [Example 202, 1′-{[1-(3,5-Difluorobenzyl)-1H-indol-3-yl]carbonyl}-3H-spiro[2-benzofuran-1,4′-piperidin]-3-one]",4.3 nM
8,"O=C(c1cn(CC2CN(Cc3ccccc3)CCO2)c2cc(Cl)ccc12)N1CCC2(CC1)OCc1ccccc12 (stereo not shown) [Example 232, 1′-({1-[(4-Benzylmorpholin-2-yl)methyl]-6-chloro-1H-indol-3-yl}carbonyl)-3H-spiro[2-benzofuran-1,4′-piperidine]]",5 nM
9,"Cc1c(C(=O)N2CCC3(CC2)OCc2ccccc23)c2ccccc2n1C(=O)c1ccccc1 [Example 44, 1′-[(1-benzoyl-2-methyl-1H-indol-3-yl)carbonyl]-3H-spiro[2-benzofuran-1,4′-piperidine]]",11 nM
10,"Cc1nc(Cn2cc(C(=O)N3CCC4(CC3)OC(=O)c3cc(F)ccc34)c3ccc(Cl)cc32)c(C)o1 [Example 187, 1′-({6-Chloro-1-[(2,5-dimethyl-1,3-oxazol-4-yl)methyl]-1H-indol-3-yl}carbonyl)-5-fluoro-3H-spiro[2-benzofuran-1,4′-piperidin]-3-one]",3.6 nM
11,"Cc1c(C(=O)N2CCC3(CC2)CNc2ccccc23)c2ccccc2n1Cc1ccccc1 [Example 9, 1′-[(1-benzyl-2-methyl-1H-indol-3-yl)carbonyl]-1,2-dihydrospiro[indole-3,4′-piperidine]]",9.7 nM
12,"N#CCn1cc(C(=O)N2CCC3(CC2)OC(=O)c2ccccc23)c2ccc(Cl)cc21 [Example 37, {6-chloro-3-[(3-oxo-1′H,3H-spiro[2-benzofuran-1,4′-piperidin]-1′-yl)carbonyl]-1H-indol-1-yl}acetonitrile]",6.3 nM
13,"Cc1c(C(=O)N2CCC3(CC2)OC(=O)c2c(F)cccc23)c2ccccc2n1Cc1ccccc1 [Example 11, 1′-[(1-benzyl-2-methyl-1H-indol-3-yl)carbonyl]-4-fluoro-3H-spiro[2-benzofuran-1,4′-piperidin]-3-one]",11.2 nM
14,"Cc1cc(C)cc(Cn2c(C)c(C(=O)N3CCC4(CC3)OCc3ccccc34)c3ccccc32)c1 [Example 49, 1′-{[1-(3,5-dimethylbenzyl)-2-methyl-1H-indol-3-yl]carbonyl}-3H-spiro[2-benzofuran-1,4′-piperidine]]",2.4 nM
15,"O=C1OC2(CCN(C(=O)c3cn(CCC4CCOCC4)c4cc(Cl)ccc34)CC2)c2ccc(F)cc21 [Example 195, 1′-({6-Chloro-1-[2-(tetrahydro-2H-pyran-4-yl)ethyl]-1H-indol-3-yl}carbonyl)-5-fluoro-3H-spiro[2-benzofuran-1,4′-piperidin]-3-one hydrochloride]",2.1 nM
16,"Cc1c(C(=O)N2CCC3(CC2)OCc2ccccc23)c2ccccc2n1CC1CCCCC1 [Example 46, 1′-{[1-(cyclohexylmethyl)-2-methyl-1H-indol-3-yl]carbonyl}-3H-spiro[2-benzofuran-1,4′-piperidine]]",0.8 nM

# More lines, now with the values ahead:
row,Ki,SMILES
1,4 nM,O=C(c1cn(-c2cc(F)cc(F)c2)c2cc(Cl)ccc12)N1CCC2(CC1)OCc1ccccc12 [Example 222]
2,5.1 nM,O=C(c1cn(C(=O)c2cccc(F)c2)c2cc(Cl)ccc12)N1CCC2(CC1)OCc1ccccc12 [Example 214]
3,1 nM,"CC(C)(C)OC(=O)Cn1cc(C(=O)N2CCC3(CC2)OCc2ccccc23)c2ccc(Cl)cc21 [Example 209, tert-Butyl[6-chloro-3-(1′H,3H-spiro[2-benzofuran-1,4′-piperidin]-1′-ylcarbonyl)-1H-indol-1-yl]acetate]"
4,5.8 nM,O=C(c1cn(C(=O)c2cccc(F)c2F)c2cc(Cl)ccc12)N1CCC2(CC1)OCc1ccccc12 [Example 217]
5,1.2 nM,"O=C1OC2(CCN(C(=O)c3cn(CC(=O)N4CCNCC4)c4cc(Cl)ccc34)CC2)c2ccc(F)cc21 [Example 117, 1′-{[6-Chloro-1-(2-oxo-2-piperazin-1-ylethyl)-1H-indol-3-yl]carbonyl}-5-fluoro-3H-spiro[2-benzofuran-1,4′-piperidin]-3-one]"
6,4.4 nM,"O=C(Cn1cc(C(=O)N2CCC3(CC2)OC(=O)c2cc(Br)ccc23)c2ccc(Cl)cc21)c1cccc(F)c1 [Example 152, 5-Bromo-1′-({6-chloro-1-[2-(3-fluorophenyl)-2-oxoethyl]-1H-indol-3-yl}carbonyl)-3H-spiro[2-benzofuran-1,4′-piperidin]-3-one]"
7,2.1 nM,"N#CCC1(Cn2cc(C(=O)N3CCC4(CC3)OC(=O)c3ccccc34)c3ccc(Cl)cc32)CC1 [Example 193, [1-({6-Chloro-3-[(3-oxo-1′H,3H-spiro[2-benzofuran-1,4′-piperidin]-1′-yl)carbonyl]-1H-indol-1-yl}methyl)cyclopropyl]acetonitrile]"
8,65.3 nM,"COCc1ncc(Cn2cc(C(=O)N3CCC4(CC3)OC(=O)c3cc(F)ccc34)c3ccc(Cl)cc32)c(N)n1 [Example 162, 1′-[(1-{[4-Amino-2-(methoxymethyl)pyrimidin-5-yl]methyl}-6-chloro-1H-indol-3-yl)carbonyl]-5-fluoro-3H-spiro[2-benzofuran-1,4′-piperidin]-3-one]"
9,1.7 nM,"Cc1c(C(=O)N2CCC3(CC2)OCc2ccccc23)c2ccccc2n1Cc1ccccc1Cl [Example 53, 1′-{[1-(2-chlorobenzyl)-2-methyl-1H-indol-3-yl]carbonyl}-3H-spiro[2-benzofuran-1,4′-piperidine]]"
10,138 nM,"O=C(c1c[nH]c2cc(Cl)ccc12)N1CCC2(CC1)NCc1ccccc12 [Example 284, 1′-[(6-Chloro-1H-indol-3-yl)carbonyl]-2,3-dihydrospiro[isoindole-1,4′-piperidine]]"
11,2.3 nM,"O=C1OC2(CCN(C(=O)c3cn(CC(=O)N4CCOCC4)c4cc(Cl)ccc34)CC2)c2ccccc21 [Example 105, 1′-{[6-Chloro-1-(2-morpholin-4-yl-2-oxoethyl)-1H-indol-3-yl]carbonyl}-3H-spiro[2-benzofuran-1,4′-piperidin]-3-one]"
12,9.5 nM,"Cc1c(C(=O)N2CCC3(CC2)OCc2ccccc23)c2ccccc2n1S(=O)(=O)c1ccccc1 [Example 45, 1′-{[2-methyl-1-(phenylsulfonyl)-1H-indol-3-yl]carbonyl}-3H-spiro[2-benzofuran-1,4′-piperidine]]"
13,1.7 nM,"O=C1OC2(CCN(C(=O)c3cn(CC4(F)COC4)c4cc(Cl)ccc34)CC2)c2ccccc21 [Example 189, 1′-({6-Chloro-1-[(3-fluorooxetan-3-yl)methyl]-1H-indol-3-yl}carbonyl)-3H-spiro[2-benzofuran-1,4′-piperidin]-3-one]"
14,2.7 nM,"O=C(c1cn(CC2CCNC2)c2cc(Cl)ccc12)N1CCC2(CC1)OCc1ccccc12 (stereo not shown) [Example 266, 1′-{[6-Chloro-1-(pyrrolidin-3-ylmethyl)-1H-indol-3-yl]carbonyl}-3H-spiro[2-benzofuran-1,4′-piperidine]]"
15,1.7 nM,"O=C(c1cn(Cc2cccnc2)c2cc(Cl)ccc12)N1CCC2(CC1)OCc1ccccc12 [Example 230, 1′-{[6-Chloro-1-(pyridin-3-ylmethyl)-1H-indol-3-yl]carbonyl}-3H-spiro[2-benzofuran-1,4′-piperidine]]"
16,2.8 nM,"N#CCC1(Cn2cc(C(=O)N3CCC4(CC3)OC(=O)c3cc(F)ccc34)c3ccc(Cl)cc32)CC1 [Example 191, [1-({6-Chloro-3-[(5-fluoro-3-oxo-1′H,3H-spiro[2-benzofuran-1,4′-piperidin]-1′-yl)carbonyl]-1H-indol-1-yl}methyl)cyclopropyl]acetonitrile]"
17,2.6 nM,"Cc1c(C(=O)N2CCC3(CC2)OCc2ccccc23)c2ccccc2n1Cc1ccccc1OC(F)(F)F [Example 48, 1′-({2-methyl-1-[2-(trifluoromethoxy)benzyl]-1H-indol-3-yl}carbonyl)-3H-spiro[2-benzofuran-1,4′-piperidine]]"
18,1 nM,"O=C(Cn1cc(C(=O)N2CCC3(CC2)OCc2ccccc23)c2ccc(Cl)cc21)N1CCOCC1 [Example 205, 1′-{[6-Chloro-1-(2-morpholin-4-yl-2-oxoethyl)-1H-indol-3-yl]carbonyl}-3H-spiro[2-benzofuran-1,4′-piperidine]]"
